Experimental findings from US20130115256A1, “METHODS FOR TREATING OR PREVENTING VASCULAR GRAFT FAILURE” (priority 2010, published 2013) are described below.

Assay [1] concerns immortalized human pleural mesothelial cells (ATCC CRL-9444). In words: TNF-α-induced IL-6 expression in mesothelial cells (ELISA). Format: cell-based. The text has this: In order to examine the efficacy of MMI-0100 ([…]; SEQ ID NO: 1) in inhibiting the production of inflammatory cytokines, an inflammatory response was triggered in vitro by applying TNF-α to immortalized human pleural mesothelial cells (ATCC CRL-9444). A mesothelial cell is a cell type that forms a monolayer of specialized pavement-like cells (mesothelium) that lines the body's abdominal cavities and internal organs. The primary function of this layer, the mesothelium, is to provide a slippery, non-adhesive, and protective surface. Mesothelial cells also are involved in transport of fluid and cells across the peritoneal (abdominal) cavities, antigen presentation, inflammation, tissue repair, coagulation, and tumor cell adhesion. It is well known that mesothelial cells play important role in the peritoneal inflammatory response. In response to bacterial products and macrophage-derived inflammatory cytokines (e.g., TNF-α), mesothelial cells produce Interleukin-1 (IL-1), Interleukin-6 (IL-6), and Interleukin-8 (IL-8), thus amplifying the inflammatory signals and recruiting leukocytes into the infected abdominal cavity.
Expression of inflammatory cytokines was induced by applying 1 or 10 ng/ml of TNF-α to cultured mesothelial cells. Briefly, immortalized human pleural mesothelial cells (ATCC CRL-9444) were grown in Medium199 with Earle's BSS, 0.75 mM L-glutamine (Mediatech Inc., Manassas, Va.), 1.25 g/l sodium bicarbonate (Sigma), 3.3 nM epidermal growth factor (EGF) (MBL International, Woburn, Mass.), 40 nM hydrocortisone (Sigma), 870 nM insulin (MBL International), 20 mM HEPES (Sigma), trace elements mixture B (Mediatech Inc., Waltham, Mass.), 10% fetal bovine serum (FBS) (Hyclone), and 1% penicillin/streptomycin (Mediatech Inc., Waltham, Mass.). […] Human mesothelial cells were treated with two different concentrations (1 and 10 ng/mL) of TNF-α for 2, 6, 12, and 24 hours (data not shown). […] Without TNF-α stimulation, mesothelial cells made negligible amounts of IL-6. […] In subsequent experiments designed to determine whether the MMI-0100 peptide ([…]; SEQ ID NO: 1) could reduce TNF-α induced IL-6 expression, both 1 and 10 ng/mL of TNF-α were selected as stimuli. 10 ng/mL of TNF-α is regarded as more physiologically relevant for mesothelial cells.
Prior to cytokine and/or inhibitor treatment, cells were allowed to acclimate in serum-free media consisting of only Medium 199 with Earle's BSS, 0.75 mM L-glutamine, 1.25 g/l sodium bicarbonate, 20 mM HEPES, trace elements mixture B (Mediatech Inc., Waltham, Mass.), and 1% penicillin/streptomycin (Mediatech Inc., Waltham, Mass.) for 24 hours. After the adapting period, cytokines (TNF-α and IL-1β) with or without MMI-0100 peptide or Rottlerin (Tocris Bioscience, Ellisville, Mo.; IC50=5 μM) were added to the media in order to compare the efficacy of MMI-0100 ([…]; SEQ ID NO: 1) with that of Rottlerin. Specifically, serum-starved mesothelial cells were treated with two different concentrations (1000 μM or 3000 μM) of MMI-0100 ([…] (SEQ ID NO: 1)) at three different time points (6 hours, 12 hours, and 24 hours) using two different concentrations of TNF-α (1 ng/ml or 10 ng/ml) or using 1 ng/ml of IL-1β. Average concentration of IL-6 (pg/ml per 10^5 cells) at each time was determined by cytokine-specific ELISA.
On the technique in general: In an ELISA, binding on a coated surface is turned into a signal by an enzyme label.

Assay [2] concerns human saphenous vein (HSV). In words: Sodium nitroprusside-induced relaxation of human saphenous vein in muscle bath. The note with it: control peptide 50 or 100 μM; data not shown. The method, then:
In preparation for testing vein segment functional viability, HSV rings were weighed and their lengths recorded. To focus on smooth muscle responses, the endothelium was mechanically denuded by rolling the luminal surface of each ring at the tip of a fine vascular forceps before suspension in a muscle bath containing a bicarbonate buffer (120 mM NaCl, 4.7 mM KCl, 1.0 mM MgSO4, 1.0 mM NaH2PO4, 10 mM glucose, 1.5 mM CaCl2, and 25 mM […], pH 7.4) equilibrated with 95% O2 and 5% CO2 at 37° C. The rings were stretched and the length progressively adjusted until maximal tension was obtained. Normalized reactivity was obtained by determining the passive length-tension relationship for each vessel segment. Rings were maintained at a resting tension of 1 g, which produces maximal responses to contractile agonists as previously determined, and equilibrated for 2 hours in buffer. Force measurements were obtained using a Radnoti Glass Technology (Monrovia, Calif.) force transducer (159901A) interfaced with a Powerlab data acquisition system and Chart software (AD Instruments, Colorado Springs, Colo.).
HSV rings were first contracted with 110 mM KCl (with equimolar replacement of NaCl in bicarbonate buffer) and the generated force was measured. 110 mM KCl causes membrane depolarization, leading to contraction of vessels containing functionally viable smooth muscle. After multiple KCl challenges, rings were washed and allowed to equilibrate in bicarbonate solution for 30 min, and then contracted with phenylephrine (PE, 10^−7-10^−6 M). Rings were relaxed with a cumulative log dose of sodium nitroprusside (SNP), a nitric oxide donor, and the force generated was recorded. All rings were again washed and equilibrated in buffer for 15 minutes. Rings were then incubated with either buffer alone or buffer plus 100 μM of MMI-0100 ([…] (SEQ ID NO: 1)) for 2 hours, followed by treatment with the same doses of PE and SNP, and the forces generated again recorded. Measured force was normalized for ring weight and length and percent relaxation was calculated; force generated with 10^−6M of PE was set as 0% relaxation.
The enhancing effect of MMI-0100 ([…]; SEQ ID NO: 1) on smooth muscle relaxation was examined by pre-treating harvested human saphenous vein (HSV) with MMI-0100 ([…]; SEQ ID NO: 1) before SNP treatment. Segments of human saphenous vein (HSV) were equilibrated in a muscle bath and pretreated with a control solution (0.01M phosphate-buffered solution, PBS) or MMI-0100 ([…] (SEQ ID NO: 1); 30 μM, 2 hrs), contracted with norepinephrine. and relaxed with increasing doses of sodium nitroprusside (SNP, 0-1 μM). Percentage of relaxation at 0, 0.01, 0.1, and 1.0 μM of SNP was measured. […]

For the compound `CC(=O)c1c(O)c(C)c(O)c(Cc2c(O)c3c(c(C(=O)/C=C/c4ccccc4)c2O)OC(C)(C)C=C3)c1O` [Rottlerin, reference compound], the “IL-6 expression compared with TNF-α alone” value in assay [1] (1 ng/mL TNF-α, 6 hrs, Rottlerin) is given as “significantly increased”. Moreover, the IL-6 expression result in assay [1] (1 ng/mL TNF-α, Rottlerin) was “ineffective”; in assay [1] (10 ng/mL TNF-α, Rottlerin 1 μM, twenty-four hours) it was “reduced IL-6 expression”.
As to “YARAAARQARA (mammal) [PTD peptide, control peptide (transduction domain, PTD peptide), reference compound]”, the “relaxation response compared to untreated control” value in assay [2] is on record as “no significant difference”.
